Key:
Assay type in all cases: cell-based, human
N15C6 cells = test: Migratory/invasive response to CXCL5, N15C6 (contemplated); conditions: 2 hours pre-treatment: 100 nM wortmannin, 20 uM LY294002a or 10 mM tyrphostin A9
Method: (§1) PC3 cells invaded through Matrigel in response to both CXCL5 and CXCL12. In experiments conducted during the development of embodiments for the present invention, the effect for CXCL12 was abrogated when the cells were pre-treated with antibody against the CXCR4 receptor but not when the cells were treated with the IgG isotype control. […] It is contemplated that PI3K-mediated FAK activation is involved in CXCL5-stimulated epithelial cell migration. Protein purified from cells exposed to CXCL5 using Western blot analysis and antibodies to FAK, Crk, p130Cas, and the phospho-forms of these proteins will be examined. It is contemplated that PI3K signaling involvement in the migratory/invasive response to cytokine stimulation by CXCL5 occurs through, for example, phosphorylation of FAK, Crk and p130Cas. It is contemplated that inhibition of downstream PI3K signaling abrogates the migratory/invasive response of CXCL5. For example, it is contemplated that N15C6 or LNCaP cells pre-treated with PI3K inhibitors (e.g., 100 nM wortmannin or 20 uM LY294002a) or 10 mM of the RAFTK/Pyk2 inhibitor tyrphostin A9 for 2 hours, then exposed to CXCL5 previously shown to stimulate the migratory/invasive response, for 2 hours, abroagates the migratory/invasive response of CXCL5.

LNCaP cells = test: Migratory/invasive response to CXCL5, LNCaP (contemplated); conditions: 2 hours pre-treatment: 100 nM wortmannin, 20 uM LY294002a or 10 mM tyrphostin A9
Method: as §1

[1] = test system: LNCaP prostate epithelial cells; test: Proliferation assay (cell counts), LNCaP; conditions: add back of exogenous chemokine, 96 hours
Method: (§2) Proliferation assays. Cellular proliferation was assessed after plating cells at 50 000 cell/well in triplicate in six-well plates and counting cells after 24 and 96 h of incubation in complete media, serum-free media or serum-free prostate stromal fibroblast conditioned media, as described previously (Macoska J A, et al., (2004) Cancer Genet. Cytogenet. 154, 36-43; incorporated herein by reference in its entirety). Averages and standard deviations of cell number were calculated for each time point under each media condition. To assess the effects of exogenous CXCL12 on cellular proliferation, recombinant human SDF1 alpha/CXCL12 (R & D Systems, 350-NS) was added at the desired concentration in 1 mL SF HIE (or 1 mL SF HIE alone for control) to each well. The cells were counted at 24 and 96 h growth and re-fed at 48 and 72 h growth. Cell counts were normalized to 50 000 cells at 24 h to account for any plating discrepancies.
(§3) Proliferation Assays. Cellular proliferation was assessed after plating cells at 50,000 cell/well in triplicate in six well plates and counting cells after 24 and 96 hours of incubation as described previously (see, e.g., Macoska J A, et al., 2004 Cancer Genet. Cytogenet. 154, 36-43; incorporated herein by reference in its entirety). To assess the effects of exogenous CXCL12 on cellular proliferation, recombinant human SDF1 alpha/CXCL12 (R&D Systems, 350-NS) was added at the desired concentration in 1 ml SF HIE (or 1 ml SF HIE alone for control) to each well. The cells were re-fed at 48 and 72 hours growth and counted at 24 and 96 hours growth. Cell counts were normalized to 50,000 cells at 24 hours to account for any plating discrepancies. Averages and standard deviations of cell number were calculated for each time point under each media condition. Experiments utilizing U0126 were performed as above, except that cells were treated after plating for 2 hours with either DMSO (vehicle) or 5 uM U0126 before addition of CXCL12. Cells were maintained in media containing DMSO or U0126 for the entirety of the experiment. For the antibody blockade experiments, cells were plated at 10,000 cells per well in triplicate in 24 well dishes and pre-incubated with mouse IgG2aκ (BD Pharmingen 555571) or mouse anti-CXCR4 (BD Pharmingen 555971) at 1 ug/ml for 1 hour prior to CXCL12 addition. Cells were maintained in media containing appropriate antibodies for the entirety of the experiment, and cells were counted at 24 and 96 hours as above.
(§4) Proliferation Assays. Cellular proliferation was assessed after plating cells at 50,000 cell/well in triplicate in six well plates and counting cells after 24 and 96 hours of incubation as described previously (see, e.g., Begley L, et al., Genes Chromosomes Cancer. 2006 February; 45(2): 136-46; herein incorporated by reference in its entirety). To assess the effects of exogenous CXCL5 on cellular proliferation, recombinant human CXCL5 (R&D Systems, 254-X) was added at the desired concentration in 2 ml SF media (or 2 ml SF media alone for control) to each well. The cells were re-fed at 24 hours growth and counted at 24 and 96 hours growth. Cell counts were normalized to 50,000 cells at 24 hours to account for any plating discrepancies. Averages and standard deviations of cell number were calculated for each time point under each media condition. For the antibody blockade experiments, 10,000 cells per well were plated in triplicate in 24 well dishes and preincubated with mouse anti-human CXCR2 (Biosource AHR1532X) or mouse antihuman CXCR4 (BD Pharmingen 555971) at 1 ug/ml for 1 hour prior to CXCL5 addition. Cells were maintained in media containing appropriate antibodies for the entirety of the experiment and were counted at 24 and 96 hours as above.

[2] = test system: N15C6 prostate epithelial cells; test: Proliferation assay (cell counts), N15C6; conditions: add back of exogenous chemokine, 96 hours
Method: as §2, §3, §4

[3] = test system: N1 prostate fibroblast cells; test: Proliferation assay, add back, N1 fibroblasts; conditions: add back of exogenous chemokine, 96 hours
From the text: FIG. 6C describes how CXCL1, CXCL5, CXCL6, and CXCL12 stimulate N15C6 prostate epithelial cell proliferation, N1 prostate fibroblast cell proliferation, and LNCaP prostate epithelial cell proliferation compared to serum-free (SF HIE) media alone. “Add back” assays were next performed to determine whether the addition of exogenous CXCL1, CXCL5, CXCL6, and CXCL12 to defined, serum-free media induced […] or LNCaP prostate epithelial or N1 fibroblast cell proliferation. For these and all experiments utilizing N15C6 and LNCaP cells, the N15C6 and N1 cells were used between passage 35-45, and LNCaP cells between passages 25-35, for consistency. All recombinant CXC proteins were obtained from R&D systems (e.g., CXCL1, #275-GR, CXCL5, #254-X; CXCL6, #333-GC, and SDF1 alpha/CXCL12, #350-NS). Cells were plated at 50,000 cells/well in triplicate, treated for 96 hours, and counted. […] Moreover, the concentrations for CXCL1, CXCL5, CXCL6 and CXCL12 observed to be growth-stimulatory for prostate epithelial cells were similar to those secreted into the media by older prostate stromal fibroblasts (see, e.g., FIGS. 6A and 6B).

ERK ½ = test: Western blot, ERK phosphorylation in LNCaP cells; conditions: 100 ng/ml EGF or 50 μM CXCL12 (FIG. 19C)
Method: Western Blot Analysis. Cells were lysed, proteins resolved by electrophoresis, and electroblotting was carried out as described previously (see, e.g.; Chaib H, et al., 2001 Cancer Res. 61, 2390-2394; incorporated herein by reference in its entirety). Proteins were detected using antibodies against phospho-ERK½ (Cell Signaling #9101), total ERK½ (Cell Signaling #9102), CXCR4 (Abcam #ab2074), Elk-1 (Cell Signaling #9182), Phospho Elk-1 (Cell Signaling #9181), or beta-actin (Santa Cruz #sc-1615), in conjunction with an ECL detection system.
Western Blot and Protein Analysis. Cells were lysed, proteins resolved by electrophoresis, and electroblotting was carried out as described previously except that 20 ug protein was electrophoresed per gel lane for N15C6 cells and 100 ug protein for LNCaP cells (see, e.g., Begley L, et al., Aging Cell. 2005 December; 4(6):291-8; Begley L A, et al., J Biol. Chem. 2007 Sep. 14; 282(37):26767-74; each herein incorporated by reference in their entireties). Proteins were detected using antibodies against phospho-ERK½ (Cell Signaling #9101), total ERK½ (Cell Signaling, #9102), phospho-p65, (Rockland #100-401-264), total p65 (Rockland #100-4165), STAT3 (9139), phospho-STAT3 (9138), beta-actin (Santa Cruz #sc-1615), or tubulin (Upstate, #DM1A) in conjunction with an ECL detection system. Secondary antibodies included goat anti-rabbit (Cell Signaling, #7074) and goat anti-mouse (Santa Cruz, #SC-2005), and both were used at a 1:5000 concentration. Immunoblots shown are representative of triplicate experiments. Densitometric quantitation of immunoblot films was accomplished by scanning the original films and converting the .tiff files to grayscale. Images were inverted, and mean band intensities were measured using ImageJ (www, followed by, .nih.gov). The mean intensity of adjacent background was also measured for each band and subtracted from band intensity.

| Compound | effect on migratory/invasive response of CXCL5 (contemplated) (N15C6 cells) | effect on migratory/invasive response of CXCL5 (contemplated) (LNCaP cells) | cell proliferation compared to serum-free (SF HIE) media alone [1] | cell proliferation compared to serum-free (SF HIE) media alone [2] | cell proliferation compared to serum-free (SF HIE) media alone [3] | ERK phosphorylation (pERK) (ERK ½) |
| --- | --- | --- | --- | --- | --- | --- |
| O=c1cc(N2CCOCC2)oc2c(-c3ccccc3)cccc12 [LY294002a] | abroagates | abroagates | – | – | – | – |
| CC(C)(C)c1cc(C=C(C#N)C#N)cc(C(C)(C)C)c1O [tyrphostin A9] | abroagates | abroagates | – | – | – | – |
| CXCL1: recombinant CXC protein from R&D systems, #275-GR | – | – | stimulate | stimulate | stimulate | – |
| CXCL6: recombinant CXC protein from R&D systems, #333-GC | – | – | stimulate | stimulate | stimulate | – |
| EGF: epidermal growth factor, used at 100 ng/ml | – | – | – | – | – | minimal |

From patent US7598028B2, “Compositions and methods for detecting and treating prostate disorders” (The Regents of the University of Michigan, priority 2006, dated 2009)
